# Experiments:
# [1] = biological target: T1, arylhydrocarbon receptor (AhR) (Homo sapiens, UniProt P35869); assay: HepG2-AhR-Luciferase assay; conditions: EC50 (uM), 24 hours of treatment
# T1 sequence (P35869 11-848): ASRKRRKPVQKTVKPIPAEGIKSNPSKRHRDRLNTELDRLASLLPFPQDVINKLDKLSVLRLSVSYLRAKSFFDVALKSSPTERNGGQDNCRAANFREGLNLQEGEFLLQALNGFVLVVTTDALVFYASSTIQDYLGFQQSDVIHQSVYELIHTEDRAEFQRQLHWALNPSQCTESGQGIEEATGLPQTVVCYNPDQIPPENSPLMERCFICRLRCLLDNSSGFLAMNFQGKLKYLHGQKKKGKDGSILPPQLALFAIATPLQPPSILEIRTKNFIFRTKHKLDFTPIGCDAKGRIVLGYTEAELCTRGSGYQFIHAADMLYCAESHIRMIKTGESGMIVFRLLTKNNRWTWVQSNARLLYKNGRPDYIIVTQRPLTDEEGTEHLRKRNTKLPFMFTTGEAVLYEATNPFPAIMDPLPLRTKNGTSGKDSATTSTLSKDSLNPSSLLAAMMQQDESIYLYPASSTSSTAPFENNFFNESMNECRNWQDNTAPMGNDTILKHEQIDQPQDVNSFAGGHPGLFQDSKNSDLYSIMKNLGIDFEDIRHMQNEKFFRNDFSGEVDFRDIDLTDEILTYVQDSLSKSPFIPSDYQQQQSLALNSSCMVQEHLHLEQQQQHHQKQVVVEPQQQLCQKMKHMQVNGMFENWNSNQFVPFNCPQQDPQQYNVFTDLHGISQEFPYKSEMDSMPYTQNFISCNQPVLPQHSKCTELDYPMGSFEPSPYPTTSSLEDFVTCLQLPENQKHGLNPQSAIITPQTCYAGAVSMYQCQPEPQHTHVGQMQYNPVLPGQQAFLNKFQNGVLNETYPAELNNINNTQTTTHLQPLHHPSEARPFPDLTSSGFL
# Method: HepG2-AhR-Luc cells were purchased from Pharmaron, One-Glo Luciferase assay system was purchased from Promega. DMEM was purchased from Hyclone, and penicillin/streptomycin was purchased from Solabio.
# Culture media for stably transfected HepG2 cells was prepared by supplementing DMEM with high glucose and L-glutamine, as well as 10% FBS.
# HepG2-AhR-Luc cells were cultured in T-75 flasks at 37° C., 5% CO2, and 95% relative humidity. Cells were allowed to reach 80-90% confluence before detachment and splitting.
# Cultivated cells were rinsed with 5 mL PBS. PBS was aspirated away, 1.5 mL trypsin was added to the flask, and cells were incubated at 37° C. for approximately 5 minutes or until the cells detached and floated. Trypsin was inactivated by adding excess serum-containing media.
# The cell suspension was transferred to a conical tube and centrifuged at 120 g for 10 minutes to pellet the cells. Cells were resuspended in seeding media at a proper density. 40 μL of cells were transferred to a 384-well culture plate (5×10^3 cells/well). Plates were placed in the incubator at 37° C. for 24 hours.
# Afterward, stock solutions of test compounds and omeprazole positive control were prepared. Compound solutions were transferred into the assay plate using Echo550. The plate was then placed back into the incubator for compound treatment.
# Later, after 24 hours of treatment, the plate was removed from the incubator and allowed to cool at ambient temperature. 30 μL One-Glo reagent equal to that of the culture medium was added in each well. Cells were allowed to lyse for at least 3 minutes, and then measured in a luminometer.
# Dose responses were graphed using the non-linear regression analysis in XLfit and EC50 values were also calculated.
# MelanoDerm™ Skin Model = assay: MelanoDerm Study 1, MTT tissue viability (Example 19); format: cell-based, human; conditions: 200 μM compared to 50 μM
# Text: Treatments were as follows: 7-days of treatment in alternate days (7TD); 7-days of treatment in alternate days followed by 7-days without treatment (recovery) (7TD+7NTD); and 14-days of treatment in alternate days (14TD). The study also evaluated the potential dermal irritation induced by each test article as measured by the conversion of MTT by MelanoDerm™ tissues after repeated exposures to the test articles, over the treatment periods specified in the protocol.
# (Berridge et al., 1996). The toxicity of the test articles to the tissue, which is evidence for potential dermal irritation, was determined by measuring the relative survival—the MTT conversion relative to the negative control-treated tissues.
# The test articles, CV-8686 and AB11644, were provided as stock solutions (˜100 mM each) in DMSO. The test articles were administered to the test system as a 50 μM and 200 μM dilution in sterile, EPI-100-LLMM. Test article DMSO (vehicle control) was administered to the test system as a 0.2% dilution in sterile, EPI-100-LLMM.
# The test articles were each prepared using the procedure as follows: starting from the stock concentrations provided, 2 μl of each test article were first diluted with the appropriate volume of EPI-100-LLMM to a final concentration of 200 μM. […]
# WM115 cells [2] = assay: Cell morphology after treatment (Example 6); format: cell-based; conditions: 100 μM, 6 hours
# WM115 cells [3] = assay: CellTiter-Glo cell viability assay (Example 9); format: cell-based; conditions: 100, 10, 1 μM; 6, 24, 48, 72 hours
# Method: (§1) CellTiter-Glo® 2.0 assay was purchased from Promega. Cell seeding, preparation of the compound source plate, and exposure of cells to test compounds were performed as described in Example 8.
# (§2) CellTiter-Glo® reagents were thawed and equilibrated to room temperature before the experiment. 40 μL of CellTiter-Glo® reagent was then added to each well for detection (at 1:1 ratio to culture medium). The plates were then incubated at room temperature for 30 minutes and read using EnSpire (PerkinElmer) plate reader. The remaining activity was calculated according to the following formula: Remaining Activity (%)=100%×(Lumsample−Lumbkg)/(Lumvehicle−Lumbkg).
# MeWo cells [4] = assay: CellTiter-Glo cell viability assay (Example 9); format: cell-based; conditions: 100, 10, 1 μM; 6, 24, 48, 72 hours
# Method: as §1, §2
# MeWo cells [5] = assay: Cell morphology after treatment (Example 6); format: cell-based; conditions: 100 μM, 6 hours
# WM115 cells [6] = assay: Annexin V assay, additional evaluation (Example 8); format: cell-based; conditions: 100, 10, 1 μM; 6, 24, 48, 72 hours
# Method: (§3) To further investigate the impact of test compounds on apoptosis, multiple readouts, covering different stages of apoptosis, were carried out on both MeWo and WM115 cells. Both cell types were treated with test compounds at 3 doses (100 μM, 10 μM, and 1 μM). Staurosporine was used as a positive control. […] The test compounds evaluated were CV-8684. CV-8685, and CV-8688.
# (§4) Cell seeding was performed as discussed above with the following exceptions: the final cell density was 4,000 cells/well for 6-hour and 24-hour detections, whereas 2,000 cells/well were used for 48-hour and 72-hour detections. For each time point. 384-well clear bottom plates (Corning 3712) and solid white bottom plates (Corning 3570) were prepared. The plates were incubated as discussed above.
# (§5) For preparation of the compound source plate, each test compound was dissolved in DMSO to 10 mM stock. Two additional concentrations were generations by 10-fold dilution to 1 mM and 0.1 mM. Staurosporine was used as positive control and 1% DMSO was employed as vehicle (negative) control. The compound source plate was spun at room temperature at 1,000 RPM for 1 minute and agitated using a plate shaker for 2 minutes.
# (§6) 400 nL of test compound was transferred from the compound source plate to 384-well culture plates using Echo550 liquid handler. After 6, 24, 48, and 72 hours, the plates were removed from the incubator for detections.
# (§7) Culture media was removed and cells were washed twice with PBS. 20 μL of pre-mixed annexin V-FITC working solution was added to each well. The cells were incubated at room temperature for 20 minutes. Plates were read using Acumen eX3 to count the number of FITC-positive cells. The relative activity was calculated according to the following formula: Relative Activity (%)=100%×(Countsample/Countvehicle).
# MeWo cells [7] = assay: Annexin V assay, additional evaluation (Example 8); format: cell-based; conditions: 100, 10, 1 μM; 6, 24, 48, 72 hours
# Method: as §3, §4, §5, §6, §7
# MeWo cells [8] = assay: Preliminary annexin V-FITC assay (Example 7); format: cell-based; conditions: 6-hour treatment
# Method: MeWo (ATCC® HTB-65™) and WM115 (ATCC® CRL-1675) cells were purchased from ATCC (Manassas, Va.) and maintained in the following: for MeWo:DMEM supplemented with 10% FBS; for WM115: RPMI 1640 supplemented with 10% FBS (10% FBS, 1% stabilized antibiotic anti-mycotic solution).
# During the first set of studies, both MeWo and WM115 cells were treated with test compounds at 10 doses starting from 100 μM with 3-fold dilution. Staurosporine was used as positive control. After 6-hour treatment, cell apoptosis was assessed using an annexin V assay. The test compounds evaluated were CV-8684, CV-8685, CV-8686, CV-8687, and CV-8688.
# For cell seeding, cells were harvested and the cell number was determined using Countess® cell counter. Cells were then diluted with culture medium to the desired density. 40 μL of cell suspension per well was added to the required number of wells in a 384-well plate (Corning 3712—clear bottom plate). The final cell density was 6,000 cells/well. After plating, the plates were incubated at 37° C., and 5% CO2 overnight.
# For preparation of compound source plate, each test compound was dissolved in DMSO to 10 mM stock. 3-fold serial dilution was performed using an EVO200™ liquid handler (TECAN) to generate ten concentrations of test compound. 0.1% DMSO was employed as vehicle (negative) control. The compound source plate was then spun at room temperature at 1,000 RPM for 1 minute and agitated using a plate shaker for 2 minutes.
# For compound treatment, 40 nL of compound were transferred from the compound source plate to the 384-well culture plate using liquid handler Echo550 (LabCyte Inc.). After 6-hour incubation, the plates were removed from the incubator for detection.
# For the preliminary annexin V assay, the plates were removed from the incubator and allowed to equilibrate at room temperature for 15 minutes. Culture media was then removed. 20 μL of pre-mixed annexin V-FITC and Hoechst33342 dye working solution were added to each well. The cells were then incubated at room temperature for 20 minutes. […] Afterward, the plate was read using an Acumen eX3 plate reader. The relative activity was calculated according to the following formula: Activity (%)=100%×(CountAnnexin V/CountTotal cell), and EC50 was calculated using GraphPad Prism (v. 5.01).
# WM115 cells [9] = assay: Lactate dehydrogenase (LDH) release assay (Example 10); format: cell-based; conditions: 100, 10, 1 μM; 6, 24, 48, 72 hours
# Method: (§8) The LDH assay quantitatively measures lactate dehydrogenase (“LDH”) released into the media from damaged cells as a biomarker for cytotoxicity and cytolysis.
# (§9) CytoTox-ONE™ Homogenous Membrane Integrity Assay was purchased from Promega. Cell seeding, preparation of the compound source plate, and exposure of cells to test compounds were performed as described in Example 8.
# (§10) Plates were then centrifuged at 1,000 RPM for 1 minute. 20 μL of cell culture medium was transferred into a new 384-well black solid plate. Then, 20 μL of CytoTOX-ONE™ was added into each well and incubated at room temperature for 10 minutes. Afterward, 10 μL of stop solution were added to each well, and the plates were agitated at 500 rpm for 1 minute. Plates were read using an excitation wavelength of 560 nm and an emission wavelength of 590 nm on EnSpire. The relative activity was calculated according to the following formula: Relative Activity (%)=100%×(Lumsample−Lumbkg)/(Lumvehicle−Lumbkg).
# MeWo cells [10] = assay: as above; format: cell-based; conditions: 100, 10, 1 μM; 6, 24, 48, 72 hours
# Method: as §8, §9, §10
EC50 ([1]; Table 2) [µM],EC50 ([1]; Table 1) [µM],"EC50 (MeWo cells [8]; Homo sapiens, MeWo, 10 doses starting from 100 μM, read-out: EC50 of annexin V staining) [µM]",Compound,"viability of the tissues, dose response (MelanoDerm™ Skin Model)",cell morphology (WM115 cells [2]),inhibition of cell viability (WM115 cells [3]),inhibition of cell viability (MeWo cells [4]),cell morphology (MeWo cells [5]),apoptosis induction (annexin V binding) (WM115 cells [6]),apoptosis induction (annexin V binding) (MeWo cells [7]),annexin V staining (MeWo cells [8]; preliminary screen),LDH release (WM115 cells [9]),LDH release (MeWo cells [10])
14.9,,,c1ccc2c(C(c3c[nH]c4ccccc34)C3CC3)c[nH]c2c1 [AB11644],slightly lower viability,,,,,,,,,
,3.17,,Cc1ccc2c(Cc3[nH]c4ccccc4c3C=O)c[nH]c2c1 [CV-8686],slightly lower viability,,,,,,,,,
,19.9,0.909,CC(c1[nH]c2ccccc2c1C=O)c1c[nH]c2ccccc12 (stereo not drawn) [CV-8688],,significantly affected,inhibited viability of both cell types in a dose-dependent manner,inhibited viability of both cell types in a dose-dependent manner,significantly affected,showed the induction effect within 6 hours of treatment in a dose-dependent manner,showed the induction effect within 6 hours of treatment in a dose-dependent manner,markedly increased annexin V staining,induced LDH release at the highest concentration tested,induced LDH release at the highest concentration tested
